{"source": "patent US9758494B2", "about": "“N-(oxazol-2-yl)-aryl-carboxylic acid amides and use thereof as herbicides” (BAYER CROPSCIENCE AG, priority 2012, dated 2017)", "assay_type_in_all_cases": "in vivo", "key": {"Oryza sativa (Rice) [1]": {"test_system": "Oryza sativa (Rice)", "assay": "Pre-emergence, damage of crop plants", "source_text": "(§1) Seeds of monocotyledonous and dicotyledonous weed plants and crop plants are laid out in wood-fiber pots in sandy loam and covered with soil. The compounds according to the invention, formulated in the form of wettable powders (WP) or as emulsion concentrates (EC), are then applied to the surface of the soil cover in the form of an aqueous suspension or emulsion at a water application rate equating to 600 to 800 l/ha, with addition of 0.2% wetting agent. After the treatment, the pots are placed in a greenhouse and kept under good growth conditions for the test plants. The damage to the test plants is assessed visually after a test period of 3 weeks by comparison with untreated controls (herbicidal activity in percent (%): 100% activity=the plants have died, 0% activity=like control plants). Here, for example, compounds No. 1-163, 1-171, 1-172, 1-283, 1-284, 1-294, 1-295, 1-334, 10-001 and 11-343, at an application rate of 320 g/ha, have an activity of at least 80% against Veronica persica.\n(§2) In the tables below, the properties of the compounds according to the invention are compared to those of the structurally most similar compounds known from WO 2012/028579 A1. These tests were carried out by the pre- and post-emergence method under the conditions mentioned under item 1 and item 2. Here, the herbicidal activity against various harmful plants and the damage of some important crop plants were compared at different dosages."}, "Echinochloa crus galli": {"test_system": "Echinochloa crus galli", "assay": "Pre-emergence herbicidal action", "conditions": "Dosage 80/ha (Table H)", "source_text": "as §1, §2"}, "Matricaria inodora": {"test_system": "Matricaria inodora", "assay": "Pre-emergence herbicidal action", "conditions": "Dosage 80/ha (Table H)", "source_text": "as §1, §2"}, "Oryza sativa (Rice) [2]": {"test_system": "Oryza sativa (Rice)", "assay": "Post-emergence, damage of crop plants", "conditions": "Dosage 80 g/ha (Table U)", "description": "(§3) Seeds of monocotyledonous and dicotyledonous weed plants and crop plants are laid out in wood fiber pots in sandy loam, covered with soil and cultivated in a greenhouse under good growth conditions. 2 to 3 weeks after sowing, the test plants are treated at the one-leaf stage. The compounds according to the invention, formulated in the form of wettable powders (WP) or as emulsion concentrates (EC), are then sprayed onto the green parts of the plants in the form of an aqueous suspension or emulsion at a water application rate equating to 600 to 800 l/ha, with addition of 0.2% wetting agent. After the test plants have been left to stand in the greenhouse under optimal growth conditions for about 3 weeks, the action of the preparations is assessed visually in comparison to untreated controls (herbicidal action in percent (%): 100% activity=the plants have died, 0% activity=like control plants). Here, for example, compounds No. 1-163, 1-171, 1-172, 1-173, 1-254, 1-283, 1-284, 1-293, 1-294 and 1-334, at an application rate of 80 g/ha, have an activity of at least 80% against Abutilon theophrasti and Amaranthus retroflexus.\nas §2"}, "Zea mays (Corn)": {"test_system": "Zea mays (Corn)", "assay": "Post-emergence, damage of crop plants", "conditions": "Dosage 80 g/ha (Table U)", "description": "as §3, §2"}, "Stellaria media": {"test_system": "Stellaria media", "assay": "Post-emergence herbicidal action", "conditions": "Dosage 5/ha (Table T)", "description": "as §3, §2"}, "Veronica persica": {"test_system": "Veronica persica", "assay": "Post-emergence herbicidal action", "conditions": "Dosage 5/ha (Table T)", "description": "as §3, §2"}}, "data": [{"smiles": "O=C(Nc1ncco1)c1ccc(C(F)(F)F)nc1Cl", "note": "[10-1]", "values": [{"measurement": "Damage of ORYZA", "setting": "Oryza sativa (Rice) [1]; 20 g/ha (Table I)", "result": 0, "unit": "%"}, {"measurement": "Damage of ORYZA", "setting": "Oryza sativa (Rice) [1]; 80 g/ha (Table I)", "result": 0, "unit": "%"}, {"measurement": "herbicidal activity against harmful plants ECGCG", "setting": "Echinochloa crus galli", "result": 70, "unit": "%"}, {"measurement": "herbicidal activity against harmful plants MATIN", "setting": "Matricaria inodora", "result": 90, "unit": "%"}, {"measurement": "damage of crop plants ORYZA", "setting": "Oryza sativa (Rice) [2]", "result": 0, "unit": "%"}, {"measurement": "damage of crop plants ZEAMX", "setting": "Zea mays (Corn)", "result": 0, "unit": "%"}, {"measurement": "herbicidal activity against harmful plants STEME", "setting": "Stellaria media", "result": 40, "unit": "%"}, {"measurement": "herbicidal activity against harmful plants VERPE", "setting": "Veronica persica", "result": 90, "unit": "%"}]}]}
